Experimental findings from patent US4882322A, “3β,17β-hydroxy-substituted steroids and related steroidal compounds” (Merrell Dow Pharmaceuticals Inc., priority 1988, dated 1989) are described below.

Where two headings read alike, the source gives them in different places.

For one experiment, the target named is T1, JAr Tumor Aromatase (Homo sapiens, UniProt P11511).
T1 construct: from 35 mg of tumor was the source for both aromatase; from tissue; host or cells: Tumor grown from subcutaneously injected human JAr choriocarcinoma cells in athymic nude mice; 800×g supernatant ('cytosol')
T1 sequence (P11511 1-503): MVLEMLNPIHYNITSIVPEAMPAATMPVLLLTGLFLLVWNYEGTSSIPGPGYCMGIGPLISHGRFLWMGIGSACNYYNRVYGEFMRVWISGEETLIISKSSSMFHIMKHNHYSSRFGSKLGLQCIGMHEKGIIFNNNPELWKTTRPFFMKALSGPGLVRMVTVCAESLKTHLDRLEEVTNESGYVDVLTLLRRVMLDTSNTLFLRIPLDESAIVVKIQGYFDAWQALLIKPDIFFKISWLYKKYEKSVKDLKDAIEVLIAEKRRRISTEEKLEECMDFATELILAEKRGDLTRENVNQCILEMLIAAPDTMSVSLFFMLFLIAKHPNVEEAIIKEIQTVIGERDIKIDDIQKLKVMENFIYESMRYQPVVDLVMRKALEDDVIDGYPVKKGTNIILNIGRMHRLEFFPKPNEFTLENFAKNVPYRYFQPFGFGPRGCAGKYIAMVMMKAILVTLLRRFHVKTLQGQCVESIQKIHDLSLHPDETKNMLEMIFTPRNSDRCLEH
Kind of experiment: Time-dependent JAr tumor aromatase activity (in vitro inhibition; 3H2O release from 1-[3H]-androstenedione, cytosol of JAr tumor). Format: biochemical. The conditions noted are these: for inhibition at 5 µM: Conc. 5 μM; for inhibition at 5 µM / inhibition at 25 µM: read-out: Relative Percent Inhibition; for inhibition at 25 µM: Conc. 25 μM. Here is the method: The aromatase inhibitory action of the compounds of the present invention may be determined using a radioenzymatic assay. An aromatase enzyme preparation is employed from the microsomal fraction isolated from human placenta. Stereospecific elimination of 1β and 2β tritium labels from androgen substrates such as testosterone or androstenedione, and the subsequent appearance of tritated water, is utilized to measure the rate of enzyme reaction during in vitro incubations.
In evaluating the inhibition of aromatase activity, the compounds of the present invention were tested according to the folowing procedure adapted from Johnston et al., J Steroid Biochem., Vol. 20, No. 6A, 1221 (1984) and Johnston, Steroids, Vol. 50, No. 1-3, 105 (1987). Athymic nude mice were subcutaneously injected with 1.5×10^6 human choriocarcinoma trophoblast (JAr) cells, which develop tumor masses of about 1 g in 10 days. Tumor aromatase activity was determined in vitro by measuring the ^3 H2 O resulting from the stereospecific release of 1-β ^3 H from 1-[^3 H]-androstenedione. Cytosol (800×g) from 35 mg of tumor was the source for both aromatase and 3β-steroid dehydrogenase (SDH):isomerase activity. The test compounds were incubated for varying intervals (0-3 hrs) with aromatase prior to the addition of 34 pmol 1-[3H]-androstenedione to start a 30 min aromatase activity assay. When 10-(2-propynyl)-19-norandrost-5-ene-3β,17β-diol was tested in vitro by this procedure the following results were observed: […]

Experiment [1] deals with Aromatase Activity of JAr Tumor Xenografts in Nude Mice. Kind of experiment: In vivo inhibition of aromatase activity of JAr tumor xenografts in nude mice. On the set-up: species or system human (JAr tumor cells) in athymic nude mice. The conditions noted are these: vehicle PEG-200, 6 hr post-treatment. The procedure:
In evaluating the inhibition of aromatase activity, the compounds of the present invention were tested according to the folowing procedure adapted from Johnston et al., J Steroid Biochem., Vol. 20, No. 6A, 1221 (1984) and Johnston, Steroids, Vol. 50, No. 1-3, 105 (1987). Athymic nude mice were subcutaneously injected with 1.5×10^6 human choriocarcinoma trophoblast (JAr) cells, which develop tumor masses of about 1 g in 10 days. Tumor aromatase activity was determined in vitro by measuring the ^3 H2 O resulting from the stereospecific release of 1-β ^3 H from 1-[^3 H]-androstenedione. Cytosol (800×g) from 35 mg of tumor was the source for both aromatase and 3β-steroid dehydrogenase (SDH):isomerase activity. The test compounds were incubated for varying intervals (0-3 hrs) with aromatase prior to the addition of 34 pmol 1-[3H]-androstenedione to start a 30 min aromatase activity assay. When 10-(2-propynyl)-19-norandrost-5-ene-3β,17β-diol was tested in vitro by this procedure the following results were observed:
The compound 10-(2-propynyl)-19-norandrost-5-ene-3β,17β-diol was also evaluated in vivo by treating nude mice with trophoblast tumors. At 6 hr post-treatment intervals, tumor aromatase activity was determined in an in vitro assay as discussed above. The vehicle for oral dosing was PEG-200.

For `C#CC[C@]12CC[C@H](O)CC1=CC[C@@H]1[C@@H]2CC[C@]2(C)[C@@H](O)CC[C@@H]12` [10-(2-propynyl)-19-norandrost-5-ene-3β,17β-diol], the inhibition at 5 µM on JAr Tumor Aromatase (preincubation time 0 hr) was 15.1%; on JAr Tumor Aromatase (preincubation time 1 hr), 0%; at JAr Tumor Aromatase (preincubation time 2 hr), 66.9%; on JAr Tumor Aromatase (preincubation time 3 hr), 71.9%. Also, the inhibition at 25 µM on JAr Tumor Aromatase (preincubation time 0 hr) was determined as 33.4%; on JAr Tumor Aromatase (preincubation time 1 hr), 0%; on JAr Tumor Aromatase (preincubation time 2 hr) it was 86.5%; at JAr Tumor Aromatase (preincubation time 3 hr), 84.9%. Besides, at JAr Tumor Aromatase (preincubation 0-3 hr, after enzymatic processing to a more reactive component), the “type of aromatase inhibition (biphase response)” value is “time-dependent inhibition of aromatase”. Also, the results for the “Relative % Inhibition 6 hr Post-treatment” value in experiment [1] (7 mg/kg oral), in experiment [1] (10 mg/kg oral) and in experiment [1] (30 mg/kg oral) were 5.9 ± 3.0%, 27.5 ± 1.5% and 53.4 ± 7.8%, respectively.

By inhibition is commonly meant the change of the read-out against control, counted positive when it falls.
